≈ marks a conversion by molar mass, not a printed value.
Columns and labels:
E. coli (ΔtolC) = type: cell-based; settings: for MIC E. coli (ΔtolC): knockout of efflux pump component TolC; for MIC E. coli (ΔtolC) +PMBN: PMBN 8 μg/mL
[1] = tested on: P. aeruginosa (ΔmexAB, etc.); type: cell-based; settings: knockouts of MexAB-OprM, MexCD-OprJ, MexEF-OprN
E. coli (ATCC 25922) = test: Bacterial Cytological Profiling; type: cell-based; settings: ~3-fold the MIC for 2 hours (for 1); fluorescence microscopy
P. aeruginosa BC = P. aeruginosa BC (Pseudomonas aeruginosa, UniProt P37798); test: P. aeruginosa BC enzyme assay; settings: relative to parent 4a
Chain of P. aeruginosa BC (P37798 whole entry): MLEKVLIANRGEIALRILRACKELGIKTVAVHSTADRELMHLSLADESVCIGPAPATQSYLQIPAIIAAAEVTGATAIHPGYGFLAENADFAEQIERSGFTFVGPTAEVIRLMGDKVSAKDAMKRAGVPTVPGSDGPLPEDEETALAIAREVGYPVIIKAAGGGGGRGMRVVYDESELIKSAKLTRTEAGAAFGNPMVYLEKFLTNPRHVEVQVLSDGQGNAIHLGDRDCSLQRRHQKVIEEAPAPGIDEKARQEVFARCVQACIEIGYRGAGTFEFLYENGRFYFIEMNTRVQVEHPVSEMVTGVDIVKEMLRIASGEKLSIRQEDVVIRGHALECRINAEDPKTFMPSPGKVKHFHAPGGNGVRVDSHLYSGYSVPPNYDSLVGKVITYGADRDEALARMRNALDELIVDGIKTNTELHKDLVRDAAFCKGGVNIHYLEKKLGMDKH

[2] = tested on: P. aeruginosa mexT mutants; type: cell-based; settings: for potency reduction by any mexT mutation: any of the three individual mexT mutations
pKa = type: physicochemical

| SMILES | MIC E. coli (ΔtolC) (E. coli (ΔtolC)) | MIC E. coli (ΔtolC) +PMBN (E. coli (ΔtolC)) | MIC P. aeruginosa (ΔmexAB, etc.) [1] | other results |
| --- | --- | --- | --- | --- |
| Nc1ncc2cc(-c3c(Cl)cccc3Cl)c(N)nc2n1 [4a] | 0.5 µg/mL (≈ 1.63 µM) | 0.25 µg/mL (≈ 0.817 µM) | 16 µg/mL (≈ 52.3 µM) | – |
| Nc1ncc2cc(-c3ccccc3-c3ccccc3)c(N)nc2n1 [4b, 6-([1,1'-biphenyl]-2-yl)pyrido[2,3-d]pyrimidine-2,7-diamine] | 0.5 µg/mL (≈ 1.6 µM) | 0.25 µg/mL (≈ 0.798 µM) | – | – |
| Nc1ncc2cc(-c3ccccc3-c3cccnc3)c(N)nc2n1 [4c, 6-[2-(3-pyridyl)phenyl]pyrido[2,3-d]pyrimidine-2,7-diamine] | 2 µg/mL (≈ 6.36 µM) | 0.5 µg/mL (≈ 1.59 µM) | 16 µg/mL (≈ 50.9 µM) | – |
| Nc1ncc2cc(-c3c(Cl)cccc3-c3cccnc3)c(N)nc2n1 [4d, 6-[2-chloro-6-(3-pyridyl)phenyl]pyrido[2,3-d]pyrimidine-2,7-diamine] | – | – | 4 µg/mL (≈ 11.5 µM) | – |
| CC(C)COc1cccc(Cl)c1-c1cc2cnc(N)nc2nc1N [4f, 6-(2-chloro-6-isobutoxy-phenyl)pyrido[2,3-d]pyrimidine-2,7-diamine] | 0.25 µg/mL (≈ 0.727 µM) | – | – | – |
| Nc1ncc2cc(-c3c(Cl)cccc3Cl)c(N3CCC(N)(CO)C3)nc2n1 (stereo not drawn) [13c, [3-amino-1-[2-amino-6-(2,6-dichlorophenyl)pyrido[2,3-d]pyrimidin-7-yl]pyrrolidin-3-yl]methanol] | 1 µg/mL (≈ 2.47 µM) | – | – | – |
| NCC1(F)CCN(c2nc3nc(N)ncc3cc2-c2c(Cl)cccc2Cl)C1 (stereo not drawn) [13d, 7-[3-(aminomethyl)-3-fluoro-pyrrolidin-1-yl]-6-(2,6-dichlorophenyl)pyrido[2,3-d]pyrimidin-2-amine] | – | 1 µg/mL (≈ 2.46 µM) | – | – |
| NCC1(O)CCN(c2nc3nc(N)ncc3cc2-c2c(Cl)cccc2Cl)C1 (stereo not drawn) [13e, 1-[2-amino-6-(2,6-dichlorophenyl)pyrido[2,3-d]pyrimidin-7-yl]-3-(aminomethyl)pyrrolidin-3-ol] | 1 µg/mL (≈ 2.47 µM) | – | >64 µg/mL | – |
| NCC1CCN(c2nc3nc(N)ncc3cc2-c2c(Cl)cccc2Cl)C1 (stereo not drawn) [13f, 7-[3-(aminomethyl)pyrrolidin-1-yl]-6-(2,6-dichlorophenyl)pyrido[2,3-d]pyrimidin-2-amine] | – | – | – | cytological profile (E. coli (ATCC 25922)): cytological profiles very similar to each other and to parent compound 1; improvement in BC inhibition (IC50) compared to 4a (P. aeruginosa BC): 5 fold |
| NCC1CCN(c2nc3nc(N)ncc3cc2-c2c(Cl)cccc2Cl)CC1 [13g, 7-[4-(aminomethyl)-1-piperidyl]-6-(2,6-dichlorophenyl)pyrido[2,3-d]pyrimidin-2-amine] | 1 µg/mL (≈ 2.48 µM) | – | 64 µg/mL (≈ 159 µM) | – |
| Nc1ncc2cc(-c3c(Cl)cccc3Cl)c(N3C[C@@H]4[C@@H](N)[C@@H]4C3)nc2n1 [13h, 7-((1R,5S,6s)-6-amino-3-azabicyclo[3.1.0]hexan-3-yl)-6-(2,6-dichlorophenyl)pyrido[2,3-d]pyrimidin-2-amine] | – | – | – | improvement in BC inhibition (IC50) compared to 4a (P. aeruginosa BC): ~10 fold |
| Nc1ncc2cc(-c3c(Cl)cccc3-c3cccnc3)c(N3C[C@@H]4[C@@H](N)[C@@H]4C3)nc2n1 [14a, 7-[(1R,5S)-6-amino-3-azabicyclo[3.1.0]hexan-3-yl)-6-[2-chloro-6-(3-pyridyl)phenyl]pyrido[2,3-d]pyrimidin-2-amine] | 0.03 µg/mL (≈ 0.0698 µM) | – | – | potency reduction by any mexT mutation [2]: unaffected |
| Nc1ncc2cc(-c3c(Cl)cccc3-c3ccncc3)c(N3C[C@@H]4[C@@H](N)[C@@H]4C3)nc2n1 [14b, 7-[(1R,5S)-6-amino-3-azabicyclo[3.1.0]hexan-3-yl)-6-[2-chloro-6-(4-pyridyl)phenyl]pyrido[2,3-d]pyrimidin-2-amine] | 0.03 µg/mL (≈ 0.0698 µM) | 0.015 µg/mL (≈ 0.0349 µM) | 2 µg/mL (≈ 4.65 µM) | – |
| COc1ncc(-c2cccc(Cl)c2-c2cc3cnc(N)nc3nc2N2C[C@@H]3[C@@H](N)[C@@H]3C2)cc1F [14c, 7-[(1R,5S)-6-amino-3-azabicyclo[3.1.0]hexan-3-yl)-6-[2-chloro-6-(5-fluoro-6-methoxy-3-pyridyl)phenyl]pyrido[2,3-d]pyrimidin-2-amine] | 0.015 µg/mL (≈ 0.0314 µM) | 0.008 µg/mL (≈ 0.0167 µM) | 2 µg/mL (≈ 4.18 µM) | – |
| Cc1ncc(-c2cccc(Cl)c2-c2cc3cnc(N)nc3nc2N2C[C@@H]3[C@@H](N)[C@@H]3C2)s1 [14d, 7-[(1R,5S)-6-amino-3-azabicyclo[3.1.0]hexan-3-yl)-6-[2-chloro-6-(2-methylthiazol-5-yl)phenyl]pyrido[2,3-d]pyrimidin-2-amine] | 0.008 µg/mL (≈ 0.0178 µM) | – | 1 µg/mL (≈ 2.22 µM) | – |
| CC(C)COc1cccc(Cl)c1-c1cc2cnc(N)nc2nc1N1C[C@@H]2[C@@H](N)[C@@H]2C1 [14e, 7-[(1R,5S)-6-amino-3-azabicyclo[3.1.0]hexan-3-yl)-6-(2-chloro-6-isobutoxy-phenyl)pyrido[2,3-d]pyrimidin-2-amine] | 0.03 µg/mL (≈ 0.0706 µM) | 0.015 µg/mL (≈ 0.0353 µM) | – | potency reduction by any mexT mutation [2]: unaffected; cytological profile (E. coli (ATCC 25922)): cytological profiles very similar to each other and to parent compound 1 |
| O=C(O)c1cn(C2CC2)c2cc(N3CCNCC3)c(F)cc2c1=O [ciprofloxacin, reference compound] | – | – | – | resistance of mexT mutants to the antibiotic ([2]; data not shown): elevated resistance |
| Nc1ncc2cc(-c3c(Br)cccc3Br)c(N)nc2n1 [compound 1, reference compound] | 0.5 µg/mL (≈ 1.27 µM) | 0.12 µg/mL (≈ 0.304 µM) | 16 µg/mL (≈ 40.5 µM) | pKa (pKa): 4.8; potency reduction by any mexT mutation [2]: > 8 fold |
